Experimental data taken from patent US5208260A, “Vinyl Glycine derivatives for memory and learning enhancement or treatment of a cognitive disorder” (priority 1990, dated 1993).

How the values were obtained:
NMDA receptor = biological target: T1, NMDA receptor (Rattus norvegicus, UniProt P35439); assay: Modulation of [3H]TCP binding, Triton-treated, extensively washed rat SPM (functional analysis, agonist/antagonist character); assay type: biochemical; conditions: 1 h, 5.0 nM [3H]TCP, 25° C., 60 min, pH 7.4, % of maximal glycine stimulation, read-out: AG/ANTAG [3H]TCP % STIM
T1 construct: treated rat SPM that had been extensively washed; from tissue; host or cells: rat synaptic plasma membranes, Triton-treated and extensively washed
Protocol: (§1) [^3 H]Glycine binding was performed using Triton ×-100 washed synaptic plasma membranes (SPM) prepared from rat forebrain (30-45 day old, male Sprague Dawley; Sasco, St. Charles Mo.). The assay was initiated by the addition of 0.2-0.4 mg of SPM to an incubation containing 10 nM [^3 H]glycine (43.5 Ci/mmole; New England Nuclear, Boston Mass.), and various concentrations of the appropriate test compounds in a total volume of 1 ml, with all additions made in […] Tris/acetate, pH 7.4. Following a 10 min incubation at 2° C. the bound radioactivity was separated from the free by either centrifugation (12000 g for 25 min at 4° C.) or vacuum filtration through Whatman GF/B filters using a Brandel MB-18 Harvester. The Kd and Bmax values for [^3 H]glycine were similar using either separation technique. The radioactivity associated with the SPM was quantitated using liquid scintillation spectrometry. Ki values for the inhibition of [ ^3 H]glycine binding were determined using logit-log analysis, with nonspecific binding determined using 100 μM glycine. Modulation of [^3 H]TCP binding was performed using Triton ×-100 (0.04% v/v) treated rat SPM that had been extensively washed. Assay incubations were at 25° C. for 60 min and contained 5.0 nM [^3 H]TCP, and various concentrations of the test compound in 5 mM Tris/HCl, pH 7.4. The assay was stopped by rapid filtration, using a Brandel MB-48 Harvester, thru Whatman GF/B filters treated with 0.05% polyethylenimine and the samples washed four times with 2.0 mls cold buffer. Radioactivity associated with the filter was determined by liquid scintillation spectrometry as described above. Nonspecific binding was defined using 60 μM PCP.
*The stimulation of [^3 H]TCP binding (% STIM) was expressed as a […]

[1] = tested on: bacterial methionine-γ-lyase; conditions: M. Johnson et al., Biochemistry, 20, 4325-4333 (1981); cited from earlier work
[2] = biological target: T2, strychnine-insensitive Glycine receptor (Rattus norvegicus, UniProt P35439); assay: [3H]Glycine binding inhibition, Triton-washed rat forebrain synaptic plasma membranes (SPM); conditions: inhibition of 10 nM [3H]glycine binding, pH 7.4, 10 min at 2° C., nonspecific: 100 μM glycine, read-out: AFFINITY [3H]GLYCINE (Ki)
T2 construct: synaptic plasma membranes (SPM) prepared from rat forebrain; from tissue; host or cells: rat forebrain synaptic plasma membranes, male Sprague Dawley, 30-45 days old (animals from Sasco, St. Charles Mo.)
Protocol: as §1

[3] = tested on: L-aspartate aminotransferase enzyme; conditions: R. R. Rando, Nature, 250, 587-588 (1974); cited from earlier work
[4] = tested on: strychnine-insensitive glycine receptor; conditions: structure-activity relationships, literature; cited from earlier work
neurons = conditions: J. W. Olney (1969); J. W. Olney et al. (1971); cited from earlier work
human subjects = conditions: B. Saletu et al (1986); cited from earlier work
[5] = following milacemide administration; cited from earlier work

## C/C=C/[C@H](N)C(=O)O (stereo in doubt) [Compound 1, trans-L-2-amino-pent-3-enoic acid]
NMDA receptor; CONC 40 (μ)
  Emax at 40 µM: 51%
[1]
  inhibition of bacterial methionine-γ-lyase: inhibition of bacterial methionine-γ-lyase
[2]
  Ki: 7.2 µM

## C/C=C/[C@@H](N)C(=O)O (stereo in doubt) [Compound 2, trans-D-2-amino-pent-3-enoic acid]
[2]
  Ki: 4.8 µM

## CCC/C=C/[C@H](N)C(=O)O (stereo in doubt) [Compound 3, trans-L-2-amino-hept-3-enoic acid]
NMDA receptor; CONC 12 (μ)
  Emax at 12 µM: 66%
[2]
  Ki: 4.9 µM

## CCC/C=C/[C@@H](N)C(=O)O (stereo in doubt) [Compound 4, trans-D-2-amino-hept-3-enoic acid]
[2]
  Ki: 1.8 µM

## CCCCCC/C=C/[C@H](N)C(=O)O (stereo in doubt) [Compound 5, trans-L-2-amino-dec-3-enoic acid]
NMDA receptor; CONC 30 (μ)
  Emax at 30 µM: 78%
[2]
  Ki: 0.95 µM

## CCCCCC/C=C/[C@@H](N)C(=O)O (stereo in doubt) [Compound 6, trans-D-2-amino-dec-3-enoic acid]
NMDA receptor; CONC 100 (μ)
  Emax at 100 µM: 48%
[2]
  Ki: 55 µM

## N[C@H](/C=C/CCO)C(=O)O (stereo in doubt) [Compound 7, trans-D-2-amino--6-hydroxy-hex-3-enoic acid]
NMDA receptor; CONC 6 (μ)
  Emax at 6 µM: 67%
[2]
  Ki: 0.28 µM

## N[C@@H](/C=C/CCO)C(=O)O (stereo in doubt) [Compound 8, trans-L-2-amino-6-hydroxy-hex-3-enoic acid]
[2]
  Ki: 0.77 µM

## CO/C=C/[C@H](N)C(=O)O (stereo in doubt) [L-2-amino-4-methoxy-trans-3-butenoic acid]
[3]
  inhibition of L-aspartate aminotransferase: irreversible inhibitor

## C[C@@H](N)C(=O)O [D-alanine]
[4]
  affinity at strychnine-insensitive glycine receptor (in words): highest affinities

## N[C@H](CO)C(=O)O [D-serine]
[4]
  affinity at strychnine-insensitive glycine receptor (in words): highest affinities

## N[C@@H](CC(=O)O)C(=O)O [aspartic, aspartic acid]
neurons
  excitatory and excitotoxic properties: both excitatory and excitotoxic properties

## N[C@@H](CCC(=O)O)C(=O)O [glutamic acid]
neurons
  excitatory and excitotoxic properties: both excitatory and excitotoxic properties

## CCCCCNCC(N)=O [milacemide]
Human subjects
  memory-enhancing capabilities: memory-enhancing capabilities
[5]
  brain glycine content: increase in brain glycine content
